Laboratory results taken from patent publication EP1290011B1 (Oncopeptides AB, priority 2000, dated 2001).
pIC50: −log10 of the molar value.

Experiments:
CEM/S = assay: cells; type: cell-based, human; conditions: CEM/S; 72 hours incubation; read-out: IC50
CEM/R = assay: cells; type: cell-based, human; conditions: CEM/R; 72 hours incubation; read-out: IC50
ACHN = assay: cells; type: cell-based, human; conditions: ACHN, primary resistant renal carcinoma; 72 hours incubation; read-out: IC50
H69 = assay: cells; type: cell-based, human; conditions: H69, small cell lung cancer; 72 hours incubation; read-out: IC50
H69AR = assay: cells; type: cell-based, human; conditions: H69AR, doxorubicin resistance; 72 hours incubation; read-out: IC50
8226S = assay: cells; type: cell-based, human; conditions: 8226S, myeloma; 72 hours incubation; read-out: IC50
8226Dox40 = assay: cells; type: cell-based, human; conditions: 8226Dox40, doxorubicin resistance; 72 hours incubation; read-out: IC50
8226LR5 = assay: cells; type: cell-based, human; conditions: 8226LR5, melphalan resistance; 72 hours incubation; read-out: IC50
U937gtb = assay: cells; type: cell-based, human; conditions: U937gtb, lymphoma; 72 hours incubation; read-out: IC50
U937vcr = assay: cells; type: cell-based, human; conditions: U937vcr, vincristine resistance; 72 hours incubation; read-out: IC50
[1] = tested on: panel of ten human tumour cell lines; assay: cells; type: cell-based; conditions: mean over the ten cell lines; read-out: MEAN IC50
Ovarian carcinoma = assay: Cytotoxic activity in different tumour models; type: cell-based, human; conditions: Number 8
Breast cancer = assay: Cytotoxic activity in different tumour models; type: cell-based, human; conditions: Number 4
NSC Lung cancer = assay: Cytotoxic activity in different tumour models; type: cell-based, human; conditions: Number 8
Prostate cancer = assay: Cytotoxic activity in different tumour models; type: cell-based, human; conditions: Number 1
Adeno-carcinoma = assay: Cytotoxic activity in different tumour models; type: cell-based, human; conditions: Number 5
[2] = tested on: PHTC samples from 9 patients with hematological and 18 patients with solid tumours; assay: Circumvention of melphalan resistance: FMCA classification of PHTC samples as LDR, IDR, EDR; type: cell-based, human; conditions: tested at 4 µM; for Number of samples EDR / Number of samples (%) EDR: Extreme drug resistance; for Number of samples (%) EDR / Number of samples (%) IDR / Number of samples (%) LDR: percent of samples; for Number of samples IDR / Number of samples (%) IDR: Intermediate drug resistance; for Number of samples LDR / Number of samples (%) LDR: Low drug resistance
Solid tumours (PHTC) = assay: FMCA in PHTC cultures, Table 4, solid; conditions: 4 µM; n=12-20; 4320 min
[3] = tested on: primary cultures of human tumor cells from patients (PHTC), Total; assay: FMCA in PHTC cultures, Table 4, total; conditions: 4 µM; n=19-31; 4320 min
[4] = tested on: Hematological tumours (PHTC); assay: FMCA in PHTC cultures, Table 4, hematological; conditions: 4 µM; n=7-11; 4320 min
[5] = tested on: fresh human tumour specimens; assay: FMCA cytotoxic activity in 27 fresh human tumour specimens (Figure 2); type: cell-based; conditions: 27 human tumour samples, 14 hematological and 13 solid, comparative statement
NCI-H23 = assay: cells; type: cell-based; conditions: NCI-H23, non-small cell lung cancer; read-out: IC50
U-1752 = assay: cells; type: cell-based; conditions: U-1752, non-small cell lung cancer; read-out: IC50
NCI-H611 = assay: cells; type: cell-based; conditions: NCI-H611, non-small cell lung cancer; read-out: IC50
NCI-H157 = assay: cells; type: cell-based; conditions: NCI-H157, non-small cell lung cancer; read-out: IC50
U-1810 = assay: cells; type: cell-based; conditions: U-1810, non-small cell lung cancer; read-out: IC50
NCI-H125 = assay: cells; type: cell-based; conditions: NCI-H125, non-small cell lung cancer; read-out: IC50
U-1568 = assay: cells; type: cell-based; conditions: U-1568, non-small cell lung cancer; read-out: IC50
U1906L = assay: cells; type: cell-based; conditions: U1906L, small cell lung cancer; read-out: IC50
U1285 = assay: cells; type: cell-based; conditions: U1285, small cell lung cancer; read-out: IC50
U-1906E = assay: cells; type: cell-based; conditions: U-1906E, small cell lung cancer; read-out: IC50
U1690 = assay: cells; type: cell-based; conditions: U1690, small cell lung cancer; read-out: IC50
Corpus cancer = assay: Cytotoxic activity in different tumour models; type: cell-based, human; conditions: Number 4
[6] = tested on: hematological fresh human tumour specimens (PHTC); conditions: 0.66 µM; n=42; 4320 min
[7] = tested on: solid tumour fresh human tumour specimens (PHTC); conditions: 0.66 µM; n=22; 4320 min
RPMI 8226S = assay: FMCA comparing J1 and AcJ1; type: cell-based; conditions: RPMI 8226S cell line
Protocol: (§1) The fluorometric microculture cytotoxicity assay (FMCA) (Larsson, R., et al- 1992: Int J Cancer, 50, 177-185) was used to evaluate the compounds. Briefly, 96-well microtiter plates (NUNC, Roskilde, Denmark) are prepared with 20 µl drug solution at ten times the desired concentration and stored for up to two months at -70°C. In general the substances are first dissolved in absolute or acidic ethanol to concentrations of 4.0 to 8.2 mM and further diluted with sterile water or sterile phosphate buffered saline (PBS, Sigma chemicals). All dilutions with water are made directly before the experiments to minimise the influence of mustard hydrolysis. […] At day zero of the experiment 180 µl of cell suspension of adequate concentration is added to the wells of the thawed plate, six wells serve as controls (cell suspension only) and six wells as blanks (cell medium only). After 72 hours incubation the cells are washed once with PBS, and 100 µl of fluorescein diacetate (10 µg/ml) in a physiological buffer is added. After another 45 min the generated fluorescence (ex 485 nm; em 528 nm) is measured in a 96-well scanning fluorometer (Fluoroscan II, Labsystems Oy, Helsinki, Finland). […]

U-937 = assay: FMCA comparing J1 and AcJ1; type: cell-based; conditions: U-937 cell line
Protocol: as §1

Row | SMILES | pIC50 (CEM/S) | pIC50 (CEM/R) | pIC50 (ACHN) | pIC50 (H69) | pIC50 (H69AR) | pIC50 (8226S) | pIC50 (8226Dox40) | pIC50 (8226LR5) | pIC50 (U937gtb) | pIC50 (U937vcr) | pIC50 [1] | Median response at 4.0 µM >50% reduction in tumour cell survival (Ovarian carcinoma) | Median response at 4.0 µM >50% reduction in tumour cell survival (Breast cancer) | Median response at 4.0 µM >50% reduction in tumour cell survival (NSC Lung cancer) | Median response at 4.0 µM >50% reduction in tumour cell survival (Adeno-carcinoma) | Number of samples EDR [2] | Number of samples (%) EDR [2] | Number of samples IDR [2] | Number of samples (%) IDR [2] [%] | Number of samples LDR [2] | further results
1 | CC(C)OC(=O)[C@H](Cc1ccc(F)cc1)NC(=O)[C@@H](N)Cc1ccc(N(CCCl)CCCl)cc1.Cl [JV28, L-Melphalanyl-L-p-fluorophenylalanine isopropyl ester hydrochloride] | 7.22 | 7.40 | 7.30 | 7.30 | 6.43 | 6.29 | 6.05 | 5.73 | 7.00 | 6.82 | 6.39 | Yes | Yes | Yes | Yes | 1 | 6% | 2 | 12 | 14 | Median response at 4.0 µM >50% reduction in tumour cell survival (Prostate cancer): Yes; Number of samples (%) LDR [2]: 82%; Tumour cell survival index (%) Solid tumours (Solid tumours (PHTC)): 44.2%; Tumour cell survival index (%) Total [3]: 30.4%; Tumour cell survival index (%) Hematological tumours [4]: 6.7%
2 | CCOC(=O)[C@H](Cc1ccc(F)cc1)NC(=O)[C@@H](N)Cc1ccc(N(CCCl)CCCl)cc1.Cl [Example J1, L-Melphalanyl-L-p-fluorophenylalanine ethyl ester hydrochloride] | 7.52 | 8.00 | 6.40 | 7.40 | > 5.05 | 6.09 | 5.75 | 5.61 | 7.15 | 6.96 | 6.18 | Yes | Yes | Yes | Yes | 1 | 6% | 3 | 18 | 13 | IC50s (comparison) [5]: in all cases was more active than P2; pIC50 (NCI-H23): 5.12; pIC50 (U-1752): 5.89; pIC50 (NCI-H611): 5.50; pIC50 (NCI-H157): 5.41; pIC50 (U-1810): 8.00; pIC50 (NCI-H125): 5.01; pIC50 (U-1568): 5.79; pIC50 (U1906L): 6.66; pIC50 (U1285): 7.40; pIC50 (U-1906E): 5.93; pIC50 (U1690): 5.86; Median response at 4.0 µM >50% reduction in tumour cell survival (Corpus cancer): No; Number of samples (%) LDR [2]: 76%; Tumour cell survival index % Hematological [6]: 13.7%; Tumour cell survival index % Solid [7]: 46.9%; Tumour cell survival index (%) Solid tumours (Solid tumours (PHTC)): 56.5%; Tumour cell survival index (%) Total [3]: 40.9%; Tumour cell survival index (%) Hematological tumours [4]: 6.6%
3 | CCOC(=O)[C@H](Cc1ccc(F)cc1)NC(=O)[C@H](Cc1ccc(N(CCCl)CCCl)cc1)NC(C)=O [AcJ1, N-Acetyl-L-melphalanyl-L-p-fluorophenylalanine ethyl ester] |  |  |  |  |  |  |  |  |  |  |  |  |  |  |  |  |  |  |  |  | pIC50 (RPMI 8226S): 5.54; pIC50 (U-937): 6.21
4 | CCOC(=O)[C@H](Cc1ccc(F)cc1)NC(=O)[C@H](Cc1ccc(N(CCCl)CCCl)cc1)NC(=O)[C@@H]1CCCN1.Cl [Example J3, L-Prolinyl-L-melphalanyl-L-p-fluorophenylalanine ethyl ester hydrochloride] | 7.22 | 7.70 | 5.76 | 6.70 | 5.87 | 5.82 | 5.25 | 5.45 | 6.64 | 6.38 | 5.83 | Yes | Yes | Yes | Yes | 0 (0%) | 0 (0%) | 4 | 15 | 23 | Median response at 4.0 µM >50% reduction in tumour cell survival (Prostate cancer): Yes; Median response at 4.0 µM >50% reduction in tumour cell survival (Corpus cancer): Yes; Number of samples (%) LDR [2]: 85%; Tumour cell survival index (%) Solid tumours (Solid tumours (PHTC)): 36.3%; Tumour cell survival index (%) Total [3]: 25.9%; Tumour cell survival index (%) Hematological tumours [4]: 7%
